This passage reports IC50 and ED50 results from ChEMBL document CHEMBL1145317, “Hit-to-lead optimization of 1,4-dihydroindeno[1,2-c]pyrazoles as a novel class of KDR kinase inhibitors” (Bioorg Med Chem Lett, 2006).

Test [1] has as its target T1, Vascular endothelial growth factor receptor 2 (Homo sapiens, UniProt P35968).
Test [2] has as its target Hepatocyte growth factor receptor (Homo sapiens, UniProt P08581). In words: Inhibition of cMet by HTRF assay. In general terms: In TR-FRET formats the signal depends on donor and acceptor labels being close together.
For test [3], the target named is Vascular endothelial growth factor receptor 3 (Homo sapiens, UniProt P35916). In words: Inhibition of FLT4 by HTRF assay.
Another test relates to Mus musculus. In words: Activity against estradiol-induced uterine edema in orally dosed murine. The format is functional. Particulars: po.
For test [4], the target named is Mast/stem cell growth factor receptor Kit (Homo sapiens, UniProt P10721). In words: Inhibition of cKit by HTRF assay.
The target of test [5] is T1, Vascular endothelial growth factor receptor 2. As to the kind of experiment: Inhibition of VEGF-induced human KDR phosphorylation transfected in NIH3T3 cells by ELISA. It counts as functional, cell-based. For orientation: ELISA stands for enzyme-linked immunosorbent assay.
In test [6] the target is Tyrosine-protein kinase Lck (Homo sapiens, UniProt P06239). As to the kind of experiment: Inhibition of Lck by HTRF assay.
A further test has as its target Angiopoietin-1 receptor (Homo sapiens, UniProt Q02763). In words: Inhibition of Tie2 by HTRF assay.
Test [7] has as its target Vascular endothelial growth factor receptor 1 (Homo sapiens, UniProt P17948). As to the kind of experiment: Inhibition of FLT1 by HTRF assay.
The target in test [8] is Fibroblast growth factor receptor (Homo sapiens, UniProt P22607+P11362+P22455+P21802). In words: Inhibition of FGFR by HTRF assay. It counts as protein assay.
In test [9] the target is Platelet-derived growth factor receptor (Homo sapiens, UniProt P09619+P16234). In words: Inhibition of PDGFR by HTRF assay. It counts as protein-complex assay.

Consider `CN1CCN(c2ccc3c(c2)Cc2c(-c4cccs4)n[nH]c2-3)CC1`, for which half-maximal inhibition in test [1] (IC50) was put at 1000 µM.

Turning to `CN1CCN(Cc2ccc3c(c2)Cc2c-3n[nH]c2-c2cc3ccccc3s2)CC1`, in test [1], the half-maximal inhibitory concentration (IC50) was greater than 50 µM.

Regarding `c1cn(Cc2ccc3c(c2)-c2[nH]nc(-c4ccsc4)c2C3)nn1`, the IC50 in test [1] was found to be 0.19 µM.

For the molecule `CN1CCN(CCc2ccc3c(c2)-c2n[nH]c(-c4ccsc4)c2C3)CC1`, in test [1], the IC50 amounted to 0.143 µM.

In turn, `CN1CCN(C(=O)c2ccc3c(c2)-c2[nH]nc(-c4ccsc4)c2C3)CC1` showed an IC50 in test [1] of 4.08 µM. This IC50 lies about 29-fold higher than the previous one.

Consider `Cc1ccsc1-c1[nH]nc2c1Cc1cc(CN3CCN(C)CC3)ccc1-2`, for which the half-maximal inhibitory concentration (IC50) in test [1] is greater than 50 µM.

For `c1cn(Cc2ccc3c(c2)-c2[nH]nc(-c4ccsc4)c2C3)cn1`, the IC50 in test [2] was greater than 50 µM; in test [3], 0.169 µM; in test [4], 0.103 µM; in test [5] it was 0.293 µM; in test [6], 21.1 µM; in test [1] it was 0.147 µM. Besides, the half-inhibitory concentration (IC50) against Angiopoietin-1 receptor came to 17.6 µM; in test [7], 0.601 µM; in [8], 34.355 µM. Besides, it took a dose of 20 mg/kg to reach the 50% effect level in the test on Mus musculus (ED50).

As for `CCN(CC)Cc1ccc2c(c1)-c1n[nH]c(-c3ccsc3)c1C2`, in [1], half-maximal inhibition (IC50) required 0.824 µM.

As to `CC(C)N1CCN(Cc2ccc3c(c2)-c2n[nH]c(-c4ccsc4)c2C3)CC1`, in test [1], it took 0.19 µM to reach half-maximal inhibition (IC50).

`O=CN1CCN(Cc2ccc3c(c2)-c2n[nH]c(-c4ccsc4)c2C3)CC1`: it took 0.665 µM to reach half-maximal inhibition in [1] (IC50).

For the molecule `CN1CCN(Cc2ccc3c(c2)-c2[nH]nc(-c4ccsc4)c2C3)CC1`, the half-maximal inhibitory concentration (IC50) was greater than 50 µM in [2]; 1.57 µM in [3]; 0.145 µM in test [4]; greater than 50 µM in test [9]; greater than 50 µM in test [6]; 0.18 µM in test [1]. Moreover, the IC50 on Angiopoietin-1 receptor is 47.8 µM; in test [7], 0.97 µM; in test [8], greater than 50 µM.

On to `c1ncn(Cc2ccc3c(c2)-c2n[nH]c(-c4ccsc4)c2C3)n1`, for which the IC50 in test [1] came out at 0.108 µM.

As usually defined, the IC50 is the concentration at which inhibition is half-maximal. A low value points to greater potency. The term ED50 denotes the midpoint of the dose-response relation. Low values mean an effect at a small dose, high ones a need for a large dose.
